Source: publication PMC9600589, “The Heptaprenyl Diphosphate Synthase (Coq1) Is the Target of a Lipophilic Bisphosphonate That Protects Mice against Toxoplasma gondii Infection” (mBio, 2022)
Like-named read-outs stand apart in the source and are kept apart here.

Assays:
hTERT cells = assay: Cytotoxicity to hTERT cells (alamarBlue); conditions: hTERT cells
Procedure: The cytotoxicity was tested using an alamarBlue assay as described by Recher et al. ([67]).

recombinant TgCoq1 [1] = biological target: T1, recombinant TgCoq1 (Toxoplasma gondii, UniProt S8EY63); assay: Kinetic parameters of recombinant TgCoq1 with allylic substrates ([4-14C]IPP incorporation); type: biochemical; conditions: allylic substrate varied, counter substrate IPP (100 μM)
T1 sequence (S8EY63 152-676): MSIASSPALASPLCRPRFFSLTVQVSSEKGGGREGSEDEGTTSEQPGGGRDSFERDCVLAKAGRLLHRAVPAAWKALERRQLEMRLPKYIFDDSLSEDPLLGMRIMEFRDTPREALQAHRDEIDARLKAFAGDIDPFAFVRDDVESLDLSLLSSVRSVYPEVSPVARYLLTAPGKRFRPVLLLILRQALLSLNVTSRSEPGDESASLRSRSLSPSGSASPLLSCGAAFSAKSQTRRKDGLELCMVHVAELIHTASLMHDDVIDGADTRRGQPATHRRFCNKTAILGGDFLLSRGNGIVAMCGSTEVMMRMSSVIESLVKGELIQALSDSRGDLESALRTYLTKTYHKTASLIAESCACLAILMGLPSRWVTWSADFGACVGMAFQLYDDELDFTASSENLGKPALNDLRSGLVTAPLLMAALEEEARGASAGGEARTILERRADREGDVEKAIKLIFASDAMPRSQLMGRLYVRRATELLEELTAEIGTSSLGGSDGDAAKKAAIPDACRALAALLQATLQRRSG
Procedure: (§1) To investigate the biochemical function of TgCoq1, we cloned the TGGT1_269430 gene in an E. coli expression plasmid, which also includes a C-terminal polyhistidine tag to facilitate the purification of the recombinant protein by affinity chromatography. The activity of the purified protein was determined using allylic substrates and cosubstrates, by measuring the amount of [4-^14C]IPP incorporated into butanol-extractable polyprenyl diphosphates (FPP and GGPP) (Fig. 2A). […] A parallel experiment with the already characterized recombinant Trypanosoma cruzi solanesyl diphosphate synthase ([26]), TcSPPS, known to synthesize a 45-carbon product, is shown in the same TLC (Fig. 2B). With the use of a standard enzymatic method ([26]), the kinetic parameters of the reaction were obtained using various concentrations of the allylic substrates (GPP, FPP, GGPP, and IPP) and keeping the concentration of counter substrates at a saturating level (Table 1). Under these experimental conditions, the enzyme was more efficient with FPP than with GGPP (Fig. 2C) or GPP as the substrate (Table 1).
(§2) Kinetic parameters for the recombinant TgCoq1 were calculated from the activity obtained by varying the concentration of the allylic substrates (GPP, FPP, GGPP, and IPP) and keeping the concentration of counter substrates at a saturating level. The nonlinear regression analysis in Sigma plot 10.0 was used to calculate the Kinetic parameters.
(§3) For the enzymatic activity, a standard protocol for medium/long-chain prenyl diphosphate synthase was followed as described previously ([26]). The enzyme activity was measured by assessing the amount of [4-^14C]IPP incorporated into butanol-extractable polyprenyl diphosphates. The standard assay mixture contained, in a final volume of 100 μl, Tris-HCl (100 mM, pH 7.4), 100 μM of any of the allylic substrates FPP/GGPP/GPP, 1 mM MgCl2, 1 mM DTT, 1% vol/vol Triton X-100, 100 μM [4-^14C]-IPP (1 μCi/μMol), and 500 ng of purified protein. Reaction mixtures were incubated at 37°C for 30 min unless otherwise indicated. The radioactive prenyl products were extracted with 1-butanol and washed with NaCl-saturated water, and activities were calculated from the DPM values.

[2] = system: T. gondii iΔCoq1 (+ATc) mutant; assay: Rescue of the growth defect of the iΔCoq1 (+ATc) mutant by ubiquinones; type: cell-based, Toxoplasma gondii
Procedure: To further validate the role of TgCoq1 in the synthesis of ubiquinone, we tested if supplementing cultures of the iΔCoq1 (+ATc) mutant with various ubiquinones would rescue the growth defect (Fig. 7). Because UQ7 is not commercially available, we tested UQ6, UQ8, and UQ10 and observed a remarkable rescue of the growth of the iΔCoq1 (+ATc) mutant by UQ6 (Fig. 7A).
Experiments on T. gondii tachyzoites were carried out using parasites expressing red fluorescent protein (RFP) ([66]) with the modification described by Recher et al. ([67]). Tachyzoites were maintained in human fibroblasts (hTERT cells). For drug testing and growth assays, parasites were purified by passing them through a 25-gauge needle, followed by filtration through a 3-μm filter. Human fibroblasts were cultured in 96-well black-sided plates for 24 h before the addition of 4,000 fluorescent tachyzoites/well. Fluorescence values were measured for up to 9 days, and both excitation (544 nm) and emission (590 nm) were read from the bottom of the plates in a Molecular Devices plate reader ([46]). The EC50s were calculated using Prism software. The UQ6 experiments were performed using the same protocol as described above. […]

recombinant TgCoq1 [3] = biological target: T1, recombinant TgCoq1; assay: biochemical
recombinant TgFPPS = recombinant TgFPPS (Toxoplasma gondii, UniProt Q197X6); assay: biochemical
T. gondii RH = assay: In vitro growth inhibition of RFP-expressing tachyzoites in hTERT fibroblasts; type: cell-based, Toxoplasma gondii; conditions: for IC50 / EC50: Toxoplasma gondii, Fibroblast; for IC50: T. gondii growth in vitro; for rescue of growth inhibition by UQ6: 10 μM UQ6 added to the culture; for EC50: T. gondii RH
Procedure: (§4) Experiments on T. gondii tachyzoites were carried out using parasites expressing red fluorescent protein (RFP) ([66]) with the modification described by Recher et al. ([67]). Tachyzoites were maintained in human fibroblasts (hTERT cells). For drug testing and growth assays, parasites were purified by passing them through a 25-gauge needle, followed by filtration through a 3-μm filter. Human fibroblasts were cultured in 96-well black-sided plates for 24 h before the addition of 4,000 fluorescent tachyzoites/well. […] The EC50s were calculated using Prism software. The UQ6 experiments were performed using the same protocol as described above. The parasites were supplemented with 10 μM UQ6.

[4] = system: T. gondii parental strain (TatiΔku80); assay: Growth inhibition of the parental strain; type: cell-based; conditions: Toxoplasma gondii, read-out: EC50 (TatiΔku80)
Procedure: (§5) Previous work has shown that bisphosphonates can target several enzymes of the isoprenoid biosynthesis pathway, including the farnesyl diphosphate synthase (FPPS), which synthesizes FPP, the preferred substrate of TgCoq1 ([14]). […] We further determined specificity against TgCoq1, by comparing the growth inhibition of the compound against a parental strain (TatiΔku80) versus a cell line overexpressing TgCoq1 (TgCoq1-OE).
as §4

[5] = system: T. gondii TgCoq1-OE strain; assay: Growth inhibition of the TgCoq1 overexpressing strain; type: cell-based; conditions: Toxoplasma gondii, read-out: EC50 TgCoq1-OE strain
Procedure: as §5, §4

[6] = substrate: C=C(C)CCO[P@@](=O)(O)OP(=O)(O)O; assay: Kinetic parameters of recombinant TgCoq1 with allylic substrates ([4-14C]IPP incorporation); type: biochemical, Toxoplasma gondii; conditions: pH 7.4, 37.0 °C
Procedure: as §1, §2, §3

[7] = substrate: CC(C)=CCC/C(C)=C/CC/C(C)=C/CO[P@@](=O)(O)OP(=O)(O)O; assay: as above; type: biochemical, Toxoplasma gondii; conditions: other: allylic substrate varied, counter substrate IPP (100 μM); pH 7.4; 37.0 °C
Procedure: as §1, §2, §3

[8] = at 4X EC50 (concentration in μM in brackets)
[9] = at 10X EC50 (concentration in μM in brackets)
[10] = other: counter substrate FPP (100 μM)
[11] = other: counter substrate GGPP (50 μM)
[12] = other: counter substrate GPP (150 μM)

Chain of recombinant TgFPPS (Q197X6 entry or part of it): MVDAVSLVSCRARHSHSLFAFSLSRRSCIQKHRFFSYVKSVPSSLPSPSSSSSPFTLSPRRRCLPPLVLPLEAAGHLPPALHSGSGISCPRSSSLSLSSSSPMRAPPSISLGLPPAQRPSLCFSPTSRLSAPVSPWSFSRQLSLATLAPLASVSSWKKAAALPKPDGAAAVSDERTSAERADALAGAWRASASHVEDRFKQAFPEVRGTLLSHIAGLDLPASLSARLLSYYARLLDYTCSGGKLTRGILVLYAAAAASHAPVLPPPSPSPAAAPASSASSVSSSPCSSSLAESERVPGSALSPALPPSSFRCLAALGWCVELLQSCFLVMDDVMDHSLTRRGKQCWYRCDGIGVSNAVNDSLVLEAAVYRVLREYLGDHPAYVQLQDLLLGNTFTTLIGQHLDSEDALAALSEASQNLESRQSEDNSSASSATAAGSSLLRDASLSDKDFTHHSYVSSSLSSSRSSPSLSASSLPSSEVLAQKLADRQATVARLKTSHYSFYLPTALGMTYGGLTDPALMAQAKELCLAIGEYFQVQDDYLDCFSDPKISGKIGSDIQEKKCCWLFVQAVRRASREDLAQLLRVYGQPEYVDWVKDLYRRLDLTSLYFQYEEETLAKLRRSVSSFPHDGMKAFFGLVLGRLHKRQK

## CCCCCCCCCCCCCCn1cc[n+](CC(P(=O)([O-])O)P(=O)(O)O)c1 (stereo not drawn) [BPH-1219]
hTERT cells; [8]
  % Inhibition (cytotoxicity): 3.20 ± 2.89%
hTERT cells; [9]
  % Inhibition (cytotoxicity): 8.01 ± 1.82%

## CCCCCCCCn1cc[n+](CC(P(=O)([O-])O)P(=O)(O)O)c1 (stereo not drawn) [BPH-1217]
hTERT cells; [8]
  % Inhibition (cytotoxicity): 8.01 ± 1.82%
hTERT cells; [9]
  % Inhibition (cytotoxicity): 6.19 ± 9.55%

## CCCCCCCCCCCn1cc[n+](CC(O)(P(=O)([O-])O)P(=O)(O)O)c1 (stereo not drawn) [BPH-1236]
hTERT cells; [8]
  % Inhibition (cytotoxicity): 4.13 ± 1.20%
hTERT cells; [9]
  % Inhibition (cytotoxicity): 9.10 ± 2.38%

## CC(C)=CCC/C(C)=C/COP(=O)(O)OP(=O)(O)O [GPP, geranyl diphosphate]
Recombinant TgCoq1 [1]
  Kcat: 0.0002 ± 1.7e-05 s⁻¹
  Km: 0.88 ± 0.6 µM
  Vmax: 6.16 ± 0.45 nmol/min/mg

## COC1=C(OC)C(=O)C(C/C=C(\C)CC/C=C(\C)CC/C=C(\C)CC/C=C(\C)CC/C=C(\C)CC/C=C(\C)CC/C=C(\C)CCC=C(C)C)=C(C)C1=O [UQ8, ubiquinone 8]
[2]; 5 μM ubiquinone
  rescue of growth of the iΔCoq1 mutant with ATc: no rescue

## CCCCCCCCCCCCCCCn1cc[n+](CC(O)(P(=O)([O-])O)P(=O)(O)O)c1 (stereo not drawn) [BPH-1325]
Recombinant TgCoq1 [3]
  IC50: 1690 ± 460 nM
Recombinant TgFPPS
  IC50: 700 ± 60 nM
T. gondii RH
  IC50: 1650 ± 890 nM

## CCCCCCCCC(O)(P(=O)(O)O)P(=O)(O)O [BPH-252]
Recombinant TgCoq1 [3]
  IC50: 2130 ± 520 nM
Recombinant TgFPPS
  IC50: 130 ± 50 nM
T. gondii RH
  IC50: 850 ± 140 nM

## CC(C)=CCC/C(C)=C/CC/C(C)=C/CC/C(C)=C/COP(=O)(O)OP(=O)(O)O [GGPP, geranylgeranyl diphosphate]
Recombinant TgCoq1 [1]
  Kcat: 0.00275 ± 8.3e-05 s⁻¹
  Km: 14.1 ± 1.43 µM
  Vmax: 82.98 ± 2.51 nmol/min/mg

## CC(C)=CCC/C(C)=C/CNCCNC1C2CC3CC(C2)CC1C3 (stereo not drawn) [SQ109]
[4]
  EC50: 1730 ± 380 nM
[5]
  EC50: 1800 ± 470 nM

## COC1=C(OC)C(=O)C(C/C=C(\C)CC/C=C(\C)CC/C=C(\C)CC/C=C(\C)CC/C=C(\C)CC/C=C(\C)CC/C=C(\C)CC/C=C(\C)CC/C=C(\C)CCC=C(C)C)=C(C)C1=O [UQ10, ubiquinone 10]
[2]; 5 μM ubiquinone
  rescue of growth of the iΔCoq1 mutant with ATc: no rescue

## COC1=C(OC)C(=O)C(C/C=C(\C)CC/C=C(\C)CC/C=C(\C)CC/C=C(\C)CC/C=C(\C)CCC=C(C)C)=C(C)C1=O [UQ6, Ubiquinone Q6]
[2]; 5 μM ubiquinone
  rescue of growth of the iΔCoq1 mutant with ATc: rescue
[2]; 10 μM ubiquinone
  rescue of growth of the iΔCoq1 mutant with ATc: rescued

## Cc1[nH]c2c(c(=O)c1-c1ccc(Oc3ccc(OC(F)(F)F)cc3)cc1)CCCC2 [JAG-21]
T. gondii RH
  rescue of growth inhibition by UQ6: not rescued
T. gondii RH; with ubiquinone Q6 (10 μM) in the culture, read-out: EC50 + UQ6
  EC50: 70 ± 1 nM
T. gondii RH; without UQ6, read-out: EC50
  EC50: 49 ± 20 nM
hTERT cells; [8]
  % Inhibition (cytotoxicity): 6.40 ± 5.50%
hTERT cells; [9]
  % Inhibition (cytotoxicity): 5.75 ± 4.98%

## O=C1C(O)=C([C@H]2CC[C@H](c3ccc(Cl)cc3)CC2)C(=O)c2ccccc21 [Atovaquone]
T. gondii RH
  rescue of growth inhibition by UQ6: modest rescue
[4]
  EC50: 30 ± 10 nM
[5]
  EC50: 40 ± 10 nM

## CCCCCCCCCn1cc[n+](CC(O)(P(=O)([O-])O)P(=O)(O)O)c1 (stereo not drawn) [BPH-1238]
hTERT cells; [8]
  % Inhibition (cytotoxicity): 9.77 ± 1.18%
hTERT cells; [9]
  % Inhibition (cytotoxicity): 13.37 ± 6.08%

B1: recombinant TgCoq1 (Toxoplasma gondii ME49) (protein)
chain: MSIASSPALASPLCRPRFFSLTVQVSSEKGGGREGSEDEGTTSEQPGGGRDSFERDCVLAKAGRLLHRAVPAAWKALERRQLEMRLPKYIFDDSLSEDPLLGMRIMEFRDTPREALQAHRDEIDARLKAFAGDIDPFAFVRDDVESLDLSLLSSVRSVYPEVSPVARYLLTAPGKRFRPVLLLILRQALLSLNVTSRSEPGDESASLRSRSLSPSGSASPLLSCGAAFSAKSQTRRKDGLELCMVHVAELIHTASLMHDDVIDGADTRRGQPATHRRFCNKTAILGGDFLLSRGNGIVAMCGSTEVMMRMSSVIESLVKGELIQALSDSRGDLESALRTYLTKTYHKTASLIAESCACLAILMGLPSRWVTWSADFGACVGMAFQLYDDELDFTASSENLGKPALNDLRSGLVTAPLLMAALEEEARGASAGGEARTILERRADREGDVEKAIKLIFASDAMPRSQLMGRLYVRRATELLEELTAEIGTSSLGGSDGDAAKKAAIPDACRALAALLQATLQRRSG
[6]; [10]
  Km: 139.11 ± 17.68 µM
  kcat/Km: 134 M⁻¹ s⁻¹
[6]; [11]
  Km: 141.89 ± 35.75 µM
  kcat/Km: 87.5 M⁻¹ s⁻¹
[6]; [12]
  Km: 145.48 ± 1.18 µM
  kcat/Km: 6.5 M⁻¹ s⁻¹
[7]
  Km: 12.37 ± 1.83 µM
  kcat/Km: 609 M⁻¹ s⁻¹
